The text below walks through data of ChEMBL document CHEMBL4507288 (2021).

Assay [1] concerns the target 5-hydroxytryptamine receptor 1A (Homo sapiens, UniProt P08908). The assay is described as follows: GPCRScan assay: inhibition of 5-HT1A. More on the design: radioligand conc. used [nm] 0.5 – 1.0, parental cells stable CHO.
Assay [2] deals with 5-hydroxytryptamine receptor 7 (Homo sapiens, UniProt P34969). The assay is described as follows: GPCRScan assay: inhibition of 5-HT7A. Details: radioligand conc. used [nm] 5.0 – 6.0, parental cells Stable HEK.
Assay [3] concerns the target Kappa-type opioid receptor (Homo sapiens, UniProt P41145). The assay is described as follows: GPCRScan assay: inhibition of KOR. More on the design: radioligand conc. used [nm] 0.6 – 1.2, parental cells stable HEK.
In assay [4] the target is Sigma non-opioid intracellular receptor 1 (Homo sapiens, UniProt Q99720). The assay is described as follows: GPCRScan assay: inhibition of Sigma 1. More on the design: radioligand conc. used [nm] 4.0 – 5.0, parental cells HEKT.
In assay [5] the test system is Tyrosine-protein kinase ABL1 (Homo sapiens), P00519 [H396P]. Particulars: Compound concentration 1000.0 nM.
Assay [6] has as its target Protein-tyrosine kinase 6 (Homo sapiens) (UniProt Q13882). The note with it: Compound concentration 1000.0 nM.
Assay [7] has as its target Calcium/calmodulin-dependent protein kinase type IV (Homo sapiens) (UniProt Q16566). Particulars: Compound concentration 1000.0 nM.
The target of assay [8] is Cyclin-dependent kinase 11B (Homo sapiens) (UniProt P21127). The note with it: Compound concentration 1000.0 nM.
Assay [9] addresses Cyclin-dependent kinase 11A (Homo sapiens) (UniProt Q9UQ88). The note with it: Compound concentration 1000.0 nM.
In assay [10] the target is Cyclin-dependent kinase-like 1 (Homo sapiens) (UniProt Q00532). Particulars: Compound concentration 1000.0 nM.
The target in assay [11] is Serine/threonine-protein kinase Chk2 (Homo sapiens) (UniProt O96017). The note with it: Compound concentration 1000.0 nM.
For assay [12], the target named is Casein kinase I isoform gamma-3 (Homo sapiens) (UniProt Q9Y6M4). The note with it: Compound concentration 1000.0 nM.
The target of assay [13] is Death-associated protein kinase 2 (Homo sapiens) (UniProt Q9UIK4). Particulars: Compound concentration 1000.0 nM.
Assay [14] concerns the target Serine/threonine-protein kinase DCLK2 (Homo sapiens) (UniProt Q8N568). The note with it: Compound concentration 1000.0 nM.
Assay [15] deals with Serine/threonine-protein kinase MRCK gamma (Homo sapiens) (UniProt Q6DT37). Particulars: Compound concentration 1000.0 nM.
For assay [16], the target named is Mitogen-activated protein kinase 7 (Homo sapiens) (UniProt Q13164). The note with it: Compound concentration 1000.0 nM.
The target of assay [17] is Tyrosine-protein kinase Fes/Fps (Homo sapiens) (UniProt P07332). The note with it: Compound concentration 1000.0 nM.
The test system of assay [18] is Fibroblast growth factor receptor 3 (Homo sapiens), P22607 [G697C]. The note with it: Compound concentration 1000.0 nM.
Assay [19] deals with Tyrosine-protein kinase Fgr (Homo sapiens) (UniProt P09769). Particulars: Compound concentration 1000.0 nM.
The target of assay [20] is Receptor-type tyrosine-protein kinase FLT3 (Homo sapiens) (UniProt P36888). Particulars: Compound concentration 1000.0 nM.
Assay [21] relates to Receptor-type tyrosine-protein kinase FLT3 (Homo sapiens), P36888 [D835Y]. Particulars: Compound concentration 1000.0 nM.
For assay [22], the system named is Receptor-type tyrosine-protein kinase FLT3 (Homo sapiens), P36888 [K663Q]. Particulars: Compound concentration 1000.0 nM.
Assay [23] relates to eIF-2-alpha kinase GCN2 (Homo sapiens), Q9P2K8 [S808G]. Particulars: Compound concentration 1000.0 nM.
The target in assay [24] is G protein-coupled receptor kinase 3 (Homo sapiens) (UniProt P35626). The note with it: Compound concentration 1000.0 nM.
In assay [25] the target is Interleukin-1 receptor-associated kinase 3 (Homo sapiens) (UniProt Q9Y616). Particulars: Compound concentration 1000.0 nM.
The target in assay [26] is Mitogen-activated protein kinase 9 (Homo sapiens) (UniProt P45984). Particulars: Compound concentration 1000.0 nM.
Assay [27] addresses Mast/stem cell growth factor receptor Kit (Homo sapiens) (UniProt P10721). The note with it: Compound concentration 1000.0 nM.
Assay [28] has as its target Dual specificity mitogen-activated protein kinase kinase 5 (Homo sapiens) (UniProt Q13163). Particulars: Compound concentration 1000.0 nM.
Assay [29] concerns the target Macrophage-stimulating protein receptor (Homo sapiens) (UniProt Q04912). Particulars: Compound concentration 1000.0 nM.
Assay [30] deals with Serine/threonine-protein kinase Nek3 (Homo sapiens) (UniProt P51956). Particulars: Compound concentration 1000.0 nM.
Assay [31] deals with Serine/threonine-protein kinase OSR1 (Homo sapiens) (UniProt O95747). The note with it: Compound concentration 1000.0 nM.
For assay [32], the target named is Serine/threonine-protein kinase PAK 6 (Homo sapiens) (UniProt Q9NQU5). Particulars: Compound concentration 1000.0 nM.
Assay [33] deals with Phosphatidylinositol 4,5-bisphosphate 3-kinase catalytic subunit alpha isoform (Homo sapiens), P42336 [C420R]. Particulars: Compound concentration 1000.0 nM.
Assay [34] has as its system Phosphatidylinositol 4,5-bisphosphate 3-kinase catalytic subunit alpha isoform (Homo sapiens), P42336 [E545K]. Particulars: Compound concentration 1000.0 nM.
In assay [35] the test system is Phosphatidylinositol 4,5-bisphosphate 3-kinase catalytic subunit alpha isoform (Homo sapiens), P42336 [H1047L]. Particulars: Compound concentration 1000.0 nM.
In assay [36] the target is Protein kinase C delta type (Homo sapiens) (UniProt Q05655). The note with it: Compound concentration 1000.0 nM.
Assay [37] concerns the target Protein kinase C theta type (Homo sapiens) (UniProt Q04759). Particulars: Compound concentration 1000.0 nM.
Assay [38] addresses Ribosomal protein S6 kinase alpha-4 (Homo sapiens) (UniProt O75676). The note with it: Compound concentration 1000.0 nM.
The target in assay [39] is Ribosomal protein S6 kinase alpha-2 (Homo sapiens) (UniProt Q15349). The note with it: Compound concentration 1000.0 nM.
The target in assay [40] is Serine/threonine-protein kinase Sgk1 (Homo sapiens) (UniProt O00141). The note with it: Compound concentration 1000.0 nM.
The target of assay [41] is Serine/threonine-protein kinase 35 (Homo sapiens) (UniProt Q8TDR2). The note with it: Compound concentration 1000.0 nM.
Assay [42] addresses Serine/threonine-protein kinase tousled-like 1 (Homo sapiens) (UniProt Q9UKI8). Particulars: Compound concentration 1000.0 nM.
Assay [43] concerns the target Serine/threonine-protein kinase tousled-like 2 (Homo sapiens) (UniProt Q86UE8). The note with it: Compound concentration 1000.0 nM.
The target of assay [44] is Serine/threonine-protein kinase ULK2 (Homo sapiens) (UniProt Q8IYT8). The note with it: Compound concentration 1000.0 nM.
The target of assay [45] is Wee1-like protein kinase (Homo sapiens) (UniProt P30291). Particulars: Compound concentration 1000.0 nM.

Sequence of Kappa-type opioid receptor (P41145 whole entry): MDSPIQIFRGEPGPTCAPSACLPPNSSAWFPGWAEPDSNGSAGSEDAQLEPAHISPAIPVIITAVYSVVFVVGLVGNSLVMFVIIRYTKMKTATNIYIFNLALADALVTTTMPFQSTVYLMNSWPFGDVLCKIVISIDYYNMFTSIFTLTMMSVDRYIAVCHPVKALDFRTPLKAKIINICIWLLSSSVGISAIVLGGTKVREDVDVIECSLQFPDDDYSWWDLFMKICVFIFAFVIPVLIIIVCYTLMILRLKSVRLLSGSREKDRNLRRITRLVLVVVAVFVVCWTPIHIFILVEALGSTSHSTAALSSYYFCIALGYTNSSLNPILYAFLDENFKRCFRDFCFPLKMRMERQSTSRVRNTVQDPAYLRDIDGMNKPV
Sequence of 5-hydroxytryptamine receptor 7 (P34969 whole entry): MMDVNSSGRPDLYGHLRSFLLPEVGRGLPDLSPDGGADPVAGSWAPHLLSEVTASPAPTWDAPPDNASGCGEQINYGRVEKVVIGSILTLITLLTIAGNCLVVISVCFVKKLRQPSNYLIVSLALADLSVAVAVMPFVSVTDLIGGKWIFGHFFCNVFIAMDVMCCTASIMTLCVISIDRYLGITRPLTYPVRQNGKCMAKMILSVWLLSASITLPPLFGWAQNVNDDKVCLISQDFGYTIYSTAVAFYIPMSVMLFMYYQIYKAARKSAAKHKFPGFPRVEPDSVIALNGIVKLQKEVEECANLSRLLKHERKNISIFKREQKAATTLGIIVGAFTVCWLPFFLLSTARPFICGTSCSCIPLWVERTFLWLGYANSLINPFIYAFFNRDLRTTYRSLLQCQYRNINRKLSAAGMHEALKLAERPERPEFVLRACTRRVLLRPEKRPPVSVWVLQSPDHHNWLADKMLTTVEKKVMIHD
Sequence of Casein kinase I isoform gamma-3 (Homo sapiens) (Q9Y6M4 whole entry, looked up, canonical isoform): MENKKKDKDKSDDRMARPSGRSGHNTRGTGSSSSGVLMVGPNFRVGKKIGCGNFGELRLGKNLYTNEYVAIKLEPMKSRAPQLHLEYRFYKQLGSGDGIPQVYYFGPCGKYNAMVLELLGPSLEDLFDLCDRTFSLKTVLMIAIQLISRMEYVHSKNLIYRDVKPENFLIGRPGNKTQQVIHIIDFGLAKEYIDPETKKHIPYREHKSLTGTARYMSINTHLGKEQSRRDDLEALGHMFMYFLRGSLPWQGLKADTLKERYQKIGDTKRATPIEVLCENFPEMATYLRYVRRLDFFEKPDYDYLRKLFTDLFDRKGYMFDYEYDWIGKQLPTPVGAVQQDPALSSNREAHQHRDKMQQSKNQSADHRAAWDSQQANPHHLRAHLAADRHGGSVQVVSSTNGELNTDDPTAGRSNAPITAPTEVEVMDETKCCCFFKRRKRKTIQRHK
Sequence of Serine/threonine-protein kinase ULK2 (Homo sapiens) (Q8IYT8 whole entry): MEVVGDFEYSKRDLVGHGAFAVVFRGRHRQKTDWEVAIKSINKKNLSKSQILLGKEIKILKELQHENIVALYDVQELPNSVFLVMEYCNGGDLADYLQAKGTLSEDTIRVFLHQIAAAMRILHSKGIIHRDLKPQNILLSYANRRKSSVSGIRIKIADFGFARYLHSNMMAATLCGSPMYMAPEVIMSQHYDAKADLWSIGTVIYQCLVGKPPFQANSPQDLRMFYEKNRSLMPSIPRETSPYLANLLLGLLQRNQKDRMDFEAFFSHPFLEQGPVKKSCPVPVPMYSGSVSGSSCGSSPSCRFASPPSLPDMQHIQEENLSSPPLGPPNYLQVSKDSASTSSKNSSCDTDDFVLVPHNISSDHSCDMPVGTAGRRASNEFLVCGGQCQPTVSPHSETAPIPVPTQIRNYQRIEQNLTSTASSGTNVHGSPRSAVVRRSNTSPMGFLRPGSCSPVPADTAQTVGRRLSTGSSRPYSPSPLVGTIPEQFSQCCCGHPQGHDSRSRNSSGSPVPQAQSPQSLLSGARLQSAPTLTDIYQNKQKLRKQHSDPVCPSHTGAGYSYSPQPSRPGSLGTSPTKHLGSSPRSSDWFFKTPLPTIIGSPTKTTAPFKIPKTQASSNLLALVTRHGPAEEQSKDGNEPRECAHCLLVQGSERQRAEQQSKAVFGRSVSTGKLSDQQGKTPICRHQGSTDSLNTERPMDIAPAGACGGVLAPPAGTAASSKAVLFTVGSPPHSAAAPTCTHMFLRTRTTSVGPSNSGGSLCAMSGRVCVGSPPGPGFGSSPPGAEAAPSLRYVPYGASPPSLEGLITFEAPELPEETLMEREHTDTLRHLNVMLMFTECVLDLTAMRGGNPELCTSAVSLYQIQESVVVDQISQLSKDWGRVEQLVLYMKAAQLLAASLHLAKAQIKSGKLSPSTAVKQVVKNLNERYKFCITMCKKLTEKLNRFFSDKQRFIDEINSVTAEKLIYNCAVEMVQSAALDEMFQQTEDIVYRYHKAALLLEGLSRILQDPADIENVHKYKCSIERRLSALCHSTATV
Sequence of Cyclin-dependent kinase 11B (Homo sapiens) (P21127 whole entry): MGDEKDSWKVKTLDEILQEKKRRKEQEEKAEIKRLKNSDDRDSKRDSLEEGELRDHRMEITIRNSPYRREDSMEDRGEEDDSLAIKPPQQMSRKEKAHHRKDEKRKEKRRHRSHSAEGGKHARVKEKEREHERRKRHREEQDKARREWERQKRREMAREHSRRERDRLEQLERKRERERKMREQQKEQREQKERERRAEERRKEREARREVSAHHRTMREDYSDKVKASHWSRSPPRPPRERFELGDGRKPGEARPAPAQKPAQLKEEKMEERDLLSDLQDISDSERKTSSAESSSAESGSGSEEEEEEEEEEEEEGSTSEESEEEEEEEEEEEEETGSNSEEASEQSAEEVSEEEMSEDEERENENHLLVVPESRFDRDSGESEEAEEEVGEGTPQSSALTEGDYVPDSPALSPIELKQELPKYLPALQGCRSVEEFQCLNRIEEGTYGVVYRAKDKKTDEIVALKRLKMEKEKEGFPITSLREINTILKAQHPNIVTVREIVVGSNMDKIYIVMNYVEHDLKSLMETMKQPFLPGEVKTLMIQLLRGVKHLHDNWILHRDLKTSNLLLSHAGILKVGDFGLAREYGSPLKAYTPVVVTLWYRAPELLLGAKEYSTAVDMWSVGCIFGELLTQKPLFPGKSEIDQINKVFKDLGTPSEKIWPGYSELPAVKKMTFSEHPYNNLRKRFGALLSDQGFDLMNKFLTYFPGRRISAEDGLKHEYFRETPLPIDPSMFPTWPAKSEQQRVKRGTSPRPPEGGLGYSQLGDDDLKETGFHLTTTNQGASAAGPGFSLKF
Sequence of Mitogen-activated protein kinase 9 (Homo sapiens) (P45984 whole entry, looked up): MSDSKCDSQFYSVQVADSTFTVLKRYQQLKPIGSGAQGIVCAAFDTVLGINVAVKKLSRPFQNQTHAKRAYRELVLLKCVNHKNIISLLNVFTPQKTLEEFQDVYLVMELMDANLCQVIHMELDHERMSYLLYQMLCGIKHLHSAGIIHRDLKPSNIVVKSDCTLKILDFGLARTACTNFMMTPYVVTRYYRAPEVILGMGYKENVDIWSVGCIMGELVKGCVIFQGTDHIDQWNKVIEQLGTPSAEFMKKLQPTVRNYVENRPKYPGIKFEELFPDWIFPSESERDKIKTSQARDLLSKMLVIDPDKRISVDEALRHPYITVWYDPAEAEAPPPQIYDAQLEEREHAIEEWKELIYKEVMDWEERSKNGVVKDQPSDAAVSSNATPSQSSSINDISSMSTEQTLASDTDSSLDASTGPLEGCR
Sequence of G protein-coupled receptor kinase 3 (Homo sapiens) (P35626 whole entry): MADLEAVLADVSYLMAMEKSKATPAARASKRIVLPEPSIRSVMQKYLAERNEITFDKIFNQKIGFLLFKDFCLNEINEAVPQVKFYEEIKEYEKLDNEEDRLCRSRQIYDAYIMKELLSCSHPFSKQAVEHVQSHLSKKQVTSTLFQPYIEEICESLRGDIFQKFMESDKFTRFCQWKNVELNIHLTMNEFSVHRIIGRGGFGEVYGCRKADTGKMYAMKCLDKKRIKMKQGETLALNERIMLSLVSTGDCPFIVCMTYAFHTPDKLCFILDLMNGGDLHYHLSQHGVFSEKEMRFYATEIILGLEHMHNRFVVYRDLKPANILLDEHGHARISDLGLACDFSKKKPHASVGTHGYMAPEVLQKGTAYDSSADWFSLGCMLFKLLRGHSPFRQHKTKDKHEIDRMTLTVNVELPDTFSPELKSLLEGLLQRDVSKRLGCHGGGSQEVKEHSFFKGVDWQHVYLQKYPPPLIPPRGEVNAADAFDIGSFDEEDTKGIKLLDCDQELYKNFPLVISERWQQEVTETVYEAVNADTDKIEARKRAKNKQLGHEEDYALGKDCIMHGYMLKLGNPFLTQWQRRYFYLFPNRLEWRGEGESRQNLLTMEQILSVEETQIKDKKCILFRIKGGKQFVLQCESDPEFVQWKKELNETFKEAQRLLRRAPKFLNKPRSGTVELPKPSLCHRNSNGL
Sequence of Calcium/calmodulin-dependent protein kinase type IV (Homo sapiens) (Q16566 whole entry): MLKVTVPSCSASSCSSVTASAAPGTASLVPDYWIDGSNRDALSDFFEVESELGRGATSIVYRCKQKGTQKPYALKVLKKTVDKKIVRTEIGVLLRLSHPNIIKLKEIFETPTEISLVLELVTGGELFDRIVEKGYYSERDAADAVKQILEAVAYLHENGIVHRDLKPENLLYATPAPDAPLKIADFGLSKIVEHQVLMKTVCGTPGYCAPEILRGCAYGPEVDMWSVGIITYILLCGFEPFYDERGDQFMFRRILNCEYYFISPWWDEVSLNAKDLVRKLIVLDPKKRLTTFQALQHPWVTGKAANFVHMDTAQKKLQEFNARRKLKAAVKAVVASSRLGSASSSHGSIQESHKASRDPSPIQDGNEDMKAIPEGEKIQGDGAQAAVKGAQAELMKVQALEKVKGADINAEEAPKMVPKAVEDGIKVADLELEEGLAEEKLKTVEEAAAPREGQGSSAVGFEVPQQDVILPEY
Sequence of Sigma non-opioid intracellular receptor 1 (Q99720 whole entry): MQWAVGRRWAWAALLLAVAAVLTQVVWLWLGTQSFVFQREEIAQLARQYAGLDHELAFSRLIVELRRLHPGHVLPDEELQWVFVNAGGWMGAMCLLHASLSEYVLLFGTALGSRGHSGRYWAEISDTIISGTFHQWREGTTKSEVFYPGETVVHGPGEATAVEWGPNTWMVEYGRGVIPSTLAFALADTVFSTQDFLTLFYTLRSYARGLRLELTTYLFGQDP

Consider `CC(C)(C)OC(=O)N1CCCC1CNC1CCC(c2cc(F)ccc2F)(S(=O)(=O)c2ccc(Cl)cc2)CC1` (configuration not stated) [GSI-NC], for which the Ki in assay [1] was 2770 nM; in assay [2] (read-out: Ki), 826 nM; in assay [2] (read-out: pKi (converted)), 851 nM; in [3] (read-out: Ki), 3300 nM; in assay [3] (read-out: pKi (converted)), 3310 nM; in assay [4], 223 nM.
Take `O=S(=O)(NC1CCC(c2cc(F)ccc2F)(S(=O)(=O)c2ccc(Cl)cc2)CC1)C(F)(F)F` (configuration not stated) [MRK-560]: the residual activity was 100% in [5]; 95% in assay [6]; 100% in [7]; 82% in [8]; 96% in assay [9]; 100% in [10]. Besides, the residual activity was 100% in assay [11]; 83% in assay [12]; 96% in assay [13]; 94% in assay [14]; 100% in [15]; 92% in assay [16]. Also, the residual activity was 88% in [17]; 100% in assay [18]; 99% in [19]; 100% in assay [20]; 98% in [21]; 97% in assay [22]. Moreover, the residual activity was 100% in assay [23]; 92% in assay [24]; 98% in assay [25]; 73% in assay [26]; 100% in assay [27]; 52% in assay [28]. The residual activity in assay [29] is 93%; in [30], 81%; in assay [31], 91%; in assay [32], 100%; in assay [33], 36%; in assay [34], 77%. The residual activity in assay [35] is 41%; in assay [36], 100%; in assay [37], 100%; in [38] it was 100%; in assay [39] it was 95%; in [40], 83%. For the same molecule, the residual activity in [41] is 100%; in assay [42] it was 100%; in assay [43] it was 100%; in [44], 100%; in assay [45] it was 90%.
